Source: US20250099427A1, “Drug and Method of Treating or Preventing Renal Disease Using Drug” (Showa University, priority 2018, published 2025)

Key:
Format in all cases: in vivo, mouse
[1] = test system: Acute Renal Disease (Cisplatin Nephropathy) Animal Model; test: Cisplatin nephropathy model, histopathological study (HE staining); settings: 10 mg/kg 1 day after cisplatin
Description: (§1) In Tables 13 to 15, the experimental results are expressed in mean±standard error. The RT-PCR results were corrected with the amount of β-Actin as an endogenous control gene. With reference to statistically significant difference, an unpaired test between two groups (Student's t-test) was conducted for comparison between two groups, and one-way analysis of variance was conducted and then a Dunnett test was conducted for comparison among multiple groups. Further, in the histopathological study, a Mann-Whitney U test was conducted, and in all cases, a significance level of 5% or less (P<0.05) was regarded as significant difference.
10 mg/kg of SMTP-7 was administered 1 day after administration of cisplatin, and 3 days later, the kidney was isolated by the same method as in the evaluation of real time RT-PCR, and the histopathological study was conducted.
Formalin-fixed kidney was permeated with paraffin using an automatic embedding device to produce a paraffin block. The paraffin block was sliced into 3 μm sections with a microtome, and placed on a slide glass. Then, the sections were stretched with a paraffin stretcher at 52° C., and sufficiently dried overnight in a paraffin melter at 37° C. After deparaffinization and washing with water, the sections were stained with a Mayer's hematoxylin staining solution for 1 minute and washed with running water for 15 minutes. Thereafter, the sections were stained with an eosin staining solution for 45 seconds, and dehydrated with 80% to 100% ethanol, followed by clearing with xylene and sealing with marinol. Each specimen was examined microscopically at a magnification of 50 using an optical microscope. The degree of damage was examined microscopically at a magnification of 100 and 5 fields of view (1 field=2 mm, 5 fields=10 mm) and scored according to the following criteria. • Score 0: No significant change • Score 1: damage range 1 mm or less • Score 2: damage range 1 to 2 mm • Score 3: damage range 2 to 5 mm • Score 4: damage range 5 mm or more

[2] = test system: Acute Renal Failure Animal Model; test: Acute renal failure animal model, pathological tissue specimen (HE staining) lesion scores; settings: 10 mg/kg
Description: 24 hours after the ischemia and reperfusion processes, urine was collected for 24 hours using a metabolic cage, measurement of body weight was conducted, and blood was collected. Thereafter, nephrectomy was conducted, and formalin-fixed kidney was permeated with paraffin using an automatic embedding device to produce a paraffin block. The paraffin block was sliced into 3 μm sections with a microtome, and placed on a slide glass. Then, the sections were stretched with a paraffin stretcher at 52° C., and sufficiently dried overnight in a paraffin melter at 37° C. After deparaffinization and washing with water, the sections were stained with a Mayer's hematoxylin staining solution for 1 minute and washed with running water for 15 minutes. Thereafter, the sections were stained with an eosin staining solution for 45 seconds, and dehydrated with 80% to 100% ethanol, followed by clearing with xylene and sealing with marinol. Each specimen was examined microscopically at a magnification of 50 using an optical microscope. With respect to tubular dilatation, tubular necrosis, and tubular casts in the cortex, outer zone of outer medulla, and inner zone of outer medulla, the percentage of lesions in each site was evaluated according to the following criteria.
In Table 12, the experimental results are expressed in mean±standard error in eight mice in each group. For comparison among multiple groups, firstly, one-way analysis of variance (ANOVA) was conducted, and then a Bonferroni test was conducted, if significant difference was recognized. Significant difference was recognized with a significance level of less than 5% (P<0.05).

[3] = test system: Acute Renal Disease (Cisplatin Nephropathy) Animal Model; test: Test using acute renal disease (cisplatin nephropathy) animal model, BUN and sCr; settings: mean±SE
Description: A male ddY strain mouse (30 to 40 g) was used as an experimental animal. Under anesthesia with isoflurane, cisplatin (20 mg/kg) was injected into the femoral vein at a constant rate over 15 minutes to induce nephropathy. 3 days later, blood was collected from the descending vena cava, and after separating serum, blood urea nitrogen (BUN) and serum creatinine (sCr) were measured to evaluate renal function. Further, the kidney was isolated after perfusion, RNA was extracted, reverse transcription was conducted, real-time RT-PCR was conducted using the produced cDNA as a template, and the effect on TNF-α mRNA expression in renal tissues was also studied. A group to which physiological saline was administered instead of cisplatin was designated as the sham group.
In order to study the timing of administration, a drug (10 mg/kg) was injected into the femoral vein at a constant rate simultaneously with cisplatin, or 1 or 2 days later. In order to study dose relationship, a drug (0.1 mg/kg, 1 mg/kg, or 10 mg/kg) was injected to the femoral vein at a constant rate.
Further, in order to study the effect on TNF-α mRNA expression and histopathological study, a drug (10 mg/kg) was similarly administered 1 day after administration of cisplatin.
The collected blood was centrifuged at 3000 rpm for 15 minutes, serum was separated, and BUN and sCr were measured. In the measurement, BUN was measured using Urea B-test Wako (manufactured by Wako Pure Chemical Industries, Ltd.) and a QuantiChrom Urea Assay Kit (manufactured by Funakoshi Co., Ltd.), and sCr was measured using Lab Assay Creatinine (manufactured by Wako Pure Chemical Industries, Ltd.).
as §1

[4] = Score 1: damage range 1 mm or less
[5] = score 0 (no significant change) to 4 (damage range 5 mm or more), N 7
[6] = points 0 (no lesion) to 4 (severe, 50% or more), mean±SE, 8 mice
[7] = Administration one day later (1 day): 10 mg/kg femoral vein after cisplatin 20 mg/kg, timing study Table 13
[8] = Administration two days later (2 day): 10 mg/kg femoral vein after cisplatin 20 mg/kg
[9] = Coadministration: 10 mg/kg femoral vein simultaneously with cisplatin 20 mg/kg, blood 3 days after cisplatin
[10] = TNF-α study Table 15: 10 mg/kg 1 day after cisplatin
[11] = dose relationship study Table 14: 0.1 mg/kg femoral vein 1 day after cisplatin, 0.1 mg/kg
[12] = dose relationship study Table 14: 1 mg/kg femoral vein 1 day after cisplatin, 1 mg/kg
[13] = dose relationship study Table 14: 1 mg/kg femoral vein 1 day after cisplatin, listed as SMPT-7, 1 mg/kg
[14] = dose relationship study Table 14: 10 mg/kg femoral vein 1 day after cisplatin, 10 mg/kg
[15] = dose relationship study Table 14: 10 mg/kg femoral vein 1 day after cisplatin, listed as SMPT-7, 10 mg/kg

CC(C)=CCC/C(C)=C/CC[C@@]1(C)Oc2c(c(O)cc3c2CN(CCC[C@@H](C(=O)O)N2Cc4c(cc(O)c5c4O[C@](C)(CC/C=C(\C)CCC=C(C)C)[C@@H](O)C5)C2=O)C3=O)C[C@@H]1O [SMTP-7]
Degeneration Necrosis, animals with Score 0 ([1]; Score 0: No significant change): 2/7
Regeneraed tubules, animals with Score 0 ([1]; Score 0: No significant change): 7/7
Tublar dilatatuon (Hyoline casts), animals with Score 0 ([1]; Score 0: No significant change): 6/7
Degeneration Necrosis, animals with Score 1 [1, 4]: 2/7
Tublar dilatatuon (Hyoline casts), animals with Score 1 [1, 4]: 1/7
Degeneration Necrosis, animals with Score 2 ([1]; Score 2: damage range 1 to 2 mm): 1/7
Degeneration Necrosis, animals with Score 3 ([1]; Score 3: damage range 2 to 5 mm): 1/7
Degeneration Necrosis, animals with Score 4 ([1]; Score 4: damage range 5 mm or more): 1/7
Histopathological changes in the proximal tubules, result in words ([1]; compared to Control group): the level was lower than that in the Control group and no significant difference was recognized
Degeneration Necrosis, Mean score [1, 5]: 1.6
Regeneraed tubules, Mean score [1, 5]: 0.0
Tublar dilatatuon (Hyoline casts), Mean score [1, 5]: 0.1
Histopathological changes (lesion changes), result in words ([2]; compared to control group): lesion changes other than the lesion change in tubular casts in the renal cortex were significantly improved
Tubular cast score, Cortex [2, 6]: 0.9 ± 0.1
Tubular cast score, Inner zone of outer medulla [2, 6]: 1.0 ± 0.2
Tubular cast score, Outer zone of outer medulla [2, 6]: 0.9 ± 0.1
Tubular dilatation score, Cortex [2, 6]: 2.0 ± 0.3
Tubular dilatation score, Inner zone of outer medulla [2, 6]: 1.0 ± 0.2
Tubular dilatation score, Outer zone of outer medulla [2, 6]: 1.4 ± 0.4
Tubular necrosis score, Cortex [2, 6]: 0.4 ± 0.2
Tubular necrosis score, Inner zone of outer medulla [2, 6]: 0.5 ± 0.2
Tubular necrosis score, Outer zone of outer medulla [2, 6]: 0.4 ± 0.2
BUN [3, 7]: 44.5 ± 2.19 mg/dL
sCr [3, 7]: 0.80 ± 0.07 mg/dL
BUN [3, 8]: 74.2 ± 17.8 mg/dL
sCr [3, 8]: 0.78 ± 0.18 mg/dL
BUN [3, 9]: 66.3 ± 9.23 mg/dL
sCr [3, 9]: 0.81 ± 0.09 mg/dL
BUN [3, 10]: 55.9 ± 5.20 mg/dL
sCr [3, 10]: 0.41 ± 0.07 mg/dL
BUN [3, 11]: 57.0 ± 5.47 mg/dL
sCr [3, 11]: 0.78 ± 0.08 mg/dL
BUN [3, 12]: 45.0 ± 6.28 mg/dL
sCr [3, 12]: 0.65 ± 0.09 mg/dL
BUN [3, 13]: 45.0 ± 6.28 mg/dL
sCr [3, 13]: 0.65 ± 0.09 mg/dL
BUN [3, 14]: 32.1 ± 4.63 mg/dL
sCr [3, 14]: 0.53 ± 0.03 mg/dL
BUN [3, 15]: 32.1 ± 4.63 mg/dL
sCr [3, 15]: 0.53 ± 0.03 mg/dL
